According to PubChem BioAssay (NCI):
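Abbreviation: GI50, concentration required for 50% inhibition of growth. TGI: total growth inhibition.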

Key:
Assay in all cases: NCI tumour cell line growth inhibition, 384-well format
SF-295 CNS = test system: SF-295 CNS
NCI-H322M lung = test system: NCI-H322M lung
CAKI-1 renal = test system: CAKI-1 renal
UACC-62 melanoma = test system: UACC-62 melanoma
MCF7 breast = test system: MCF7 breast
SNB-75 CNS = test system: SNB-75 CNS
HOP-62 NSCLC = test system: HOP-62 NSCLC
MOLT-4 leukemia = test system: MOLT-4 leukemia
OVCAR-5 ovarian = test system: OVCAR-5 ovarian
NCI-H226 lung = test system: NCI-H226 lung
MALME-3M melanoma = test system: MALME-3M melanoma
HT29 colon = test system: HT29 colon
MDA-MB-435 melanoma = test system: MDA-MB-435 melanoma
HL-60(TB) leukemia = test system: HL-60(TB) leukemia
EKVX NSCLC = test system: EKVX NSCLC
SK-MEL-5 melanoma = test system: SK-MEL-5 melanoma
MDA-MB-468 breast = test system: MDA-MB-468 breast
RXF 393 renal = test system: RXF 393 renal
DU-145 prostate = test system: DU-145 prostate
PC-3 prostate = test system: PC-3 prostate
SR leukemia = test system: SR leukemia
ACHN renal = test system: ACHN renal
HCC-2998 colon = test system: HCC-2998 colon
A549 NSCLC = test system: A549 NSCLC
NCI-H23 lung = test system: NCI-H23 lung
OVCAR-3 ovarian = test system: OVCAR-3 ovarian
HS 578T breast = test system: HS 578T breast
SF-539 CNS = test system: SF-539 CNS
COLO 205 colon = test system: COLO 205 colon
OVCAR-8 ovarian = test system: OVCAR-8 ovarian
UACC-257 melanoma = test system: UACC-257 melanoma
MDA-MB-231 breast = test system: MDA-MB-231 breast
SK-MEL-28 melanoma = test system: SK-MEL-28 melanoma
SF-268 CNS = test system: SF-268 CNS
LOX IMVI melanoma = test system: LOX IMVI melanoma
RPMI-8226 leukemia = test system: RPMI-8226 leukemia
T-47D breast = test system: T-47D breast
A498 renal = test system: A498 renal
TK-10 renal = test system: TK-10 renal
IGROV1 ovarian = test system: IGROV1 ovarian
U251 glioblastoma = test system: U251 glioblastoma
HCT-15 colon = test system: HCT-15 colon
NCI-H460 NSCLC = test system: NCI-H460 NSCLC
SNB-19 CNS = test system: SNB-19 CNS
NCI/ADR-RES ovarian = test system: NCI/ADR-RES ovarian
NCI-H522 lung = test system: NCI-H522 lung
HOP-92 NSCLC = test system: HOP-92 NSCLC
KM12 colon = test system: KM12 colon
OVCAR-4 ovarian = test system: OVCAR-4 ovarian
HCT-116 colon = test system: HCT-116 colon
M14 melanoma = test system: M14 melanoma
BT-549 breast = test system: BT-549 breast
SK-OV-3 ovarian = test system: SK-OV-3 ovarian
SN12C renal = test system: SN12C renal

Q: Which GI50 (SF-295 CNS) does the source give for `CCOc1ccccc1N=Nc1c(C)[nH]n(-c2nc(-c3ccccc3)cs2)c1=O` here?
A: > 100 µM

Q: What about the TGI (SF-295 CNS) of the same compound?
A: > 100 µM

Q: What about the GI50 (NCI-H322M lung) of the same compound?
A: > 100 µM

Q: And the TGI (NCI-H322M lung)?
A: > 100 µM

Q: What about the GI50 (CAKI-1 renal) of the same compound?
A: > 100 µM

Q: And the TGI (CAKI-1 renal)?
A: > 100 µM

Q: What about the GI50 (UACC-62 melanoma) of the same compound?
A: > 100 µM

Q: What about the TGI (UACC-62 melanoma) of the same compound?
A: > 100 µM

Q: And the GI50 (MCF7 breast)?
A: > 100 µM

Q: And the TGI (MCF7 breast)?
A: > 100 µM

Q: And the GI50 (SNB-75 CNS)?
A: > 100 µM

Q: What about the TGI (SNB-75 CNS) of the same compound?
A: > 100 µM

Q: What about the GI50 (HOP-62 NSCLC) of the same compound?
A: > 100 µM

Q: And the TGI (HOP-62 NSCLC)?
A: > 100 µM

Q: What about the GI50 (MOLT-4 leukemia) of the same compound?
A: 98.9 µM

Q: And the TGI (MOLT-4 leukemia)?
A: > 100 µM

Q: What about the GI50 (OVCAR-5 ovarian) of the same compound?
A: > 100 µM

Q: And the TGI (OVCAR-5 ovarian)?
A: > 100 µM

Q: And the GI50 (NCI-H226 lung)?
A: > 100 µM

Q: And the TGI (NCI-H226 lung)?
A: > 100 µM

Q: And the GI50 (MALME-3M melanoma)?
A: > 100 µM

Q: And the TGI (MALME-3M melanoma)?
A: > 100 µM

Q: What about the GI50 (HT29 colon) of the same compound?
A: > 100 µM

Q: And the TGI (HT29 colon)?
A: > 100 µM

Q: What about the GI50 (MDA-MB-435 melanoma) of the same compound?
A: > 100 µM

Q: And the TGI (MDA-MB-435 melanoma)?
A: > 100 µM

Q: And the GI50 (HL-60(TB) leukemia)?
A: 21.4 µM

Q: And the TGI (HL-60(TB) leukemia)?
A: > 100 µM

Q: What about the GI50 (EKVX NSCLC) of the same compound?
A: > 100 µM

Q: What about the TGI (EKVX NSCLC) of the same compound?
A: > 100 µM

Q: And the GI50 (SK-MEL-5 melanoma)?
A: > 100 µM

Q: And the TGI (SK-MEL-5 melanoma)?
A: > 100 µM

Q: And the GI50 (MDA-MB-468 breast)?
A: 1.47 µM

Q: And the TGI (MDA-MB-468 breast)?
A: 9.75 µM

Q: What about the GI50 (RXF 393 renal) of the same compound?
A: > 100 µM

Q: What about the TGI (RXF 393 renal) of the same compound?
A: > 100 µM

Q: And the GI50 (DU-145 prostate)?
A: > 100 µM

Q: And the TGI (DU-145 prostate)?
A: > 100 µM

Q: And the GI50 (PC-3 prostate)?
A: > 100 µM

Q: And the TGI (PC-3 prostate)?
A: > 100 µM

Q: And the GI50 (SR leukemia)?
A: > 100 µM

Q: And the TGI (SR leukemia)?
A: > 100 µM

Q: And the GI50 (ACHN renal)?
A: > 100 µM

Q: And the TGI (ACHN renal)?
A: > 100 µM

Q: And the GI50 (HCC-2998 colon)?
A: > 100 µM

Q: What about the TGI (HCC-2998 colon) of the same compound?
A: > 100 µM

Q: And the GI50 (A549 NSCLC)?
A: > 100 µM

Q: And the TGI (A549 NSCLC)?
A: > 100 µM

Q: And the GI50 (NCI-H23 lung)?
A: > 100 µM

Q: What about the TGI (NCI-H23 lung) of the same compound?
A: > 100 µM

Q: And the GI50 (OVCAR-3 ovarian)?
A: > 100 µM

Q: And the TGI (OVCAR-3 ovarian)?
A: > 100 µM

Q: And the GI50 (HS 578T breast)?
A: > 100 µM

Q: What about the TGI (HS 578T breast) of the same compound?
A: > 100 µM

Q: What about the GI50 (SF-539 CNS) of the same compound?
A: > 100 µM

Q: What about the TGI (SF-539 CNS) of the same compound?
A: > 100 µM

Q: What about the GI50 (COLO 205 colon) of the same compound?
A: > 100 µM

Q: What about the TGI (COLO 205 colon) of the same compound?
A: > 100 µM

Q: What about the GI50 (OVCAR-8 ovarian) of the same compound?
A: > 100 µM

Q: And the TGI (OVCAR-8 ovarian)?
A: > 100 µM

Q: And the GI50 (UACC-257 melanoma)?
A: > 100 µM

Q: And the TGI (UACC-257 melanoma)?
A: > 100 µM

Q: And the GI50 (MDA-MB-231 breast)?
A: > 100 µM

Q: What about the TGI (MDA-MB-231 breast) of the same compound?
A: > 100 µM

Q: And the GI50 (SK-MEL-28 melanoma)?
A: > 100 µM

Q: And the TGI (SK-MEL-28 melanoma)?
A: > 100 µM

Q: And the GI50 (SF-268 CNS)?
A: > 100 µM

Q: And the TGI (SF-268 CNS)?
A: > 100 µM

Q: What about the GI50 (LOX IMVI melanoma) of the same compound?
A: > 100 µM

Q: What about the TGI (LOX IMVI melanoma) of the same compound?
A: > 100 µM

Q: What about the GI50 (RPMI-8226 leukemia) of the same compound?
A: 53.9 µM

Q: What about the TGI (RPMI-8226 leukemia) of the same compound?
A: > 100 µM

Q: What about the GI50 (T-47D breast) of the same compound?
A: > 100 µM

Q: And the TGI (T-47D breast)?
A: > 100 µM

Q: And the GI50 (A498 renal)?
A: > 100 µM

Q: What about the TGI (A498 renal) of the same compound?
A: > 100 µM

Q: What about the GI50 (TK-10 renal) of the same compound?
A: > 100 µM

Q: What about the TGI (TK-10 renal) of the same compound?
A: > 100 µM

Q: What about the GI50 (IGROV1 ovarian) of the same compound?
A: > 100 µM

Q: And the TGI (IGROV1 ovarian)?
A: > 100 µM

Q: What about the GI50 (U251 glioblastoma) of the same compound?
A: > 100 µM

Q: And the TGI (U251 glioblastoma)?
A: > 100 µM

Q: What about the GI50 (HCT-15 colon) of the same compound?
A: > 100 µM

Q: What about the TGI (HCT-15 colon) of the same compound?
A: > 100 µM

Q: And the GI50 (NCI-H460 NSCLC)?
A: > 100 µM

Q: And the TGI (NCI-H460 NSCLC)?
A: > 100 µM

Q: What about the GI50 (SNB-19 CNS) of the same compound?
A: > 100 µM

Q: And the TGI (SNB-19 CNS)?
A: > 100 µM

Q: And the GI50 (NCI/ADR-RES ovarian)?
A: > 100 µM

Q: What about the TGI (NCI/ADR-RES ovarian) of the same compound?
A: > 100 µM

Q: What about the GI50 (NCI-H522 lung) of the same compound?
A: > 100 µM

Q: And the TGI (NCI-H522 lung)?
A: > 100 µM

Q: And the GI50 (HOP-92 NSCLC)?
A: > 100 µM

Q: What about the TGI (HOP-92 NSCLC) of the same compound?
A: > 100 µM

Q: And the GI50 (KM12 colon)?
A: > 100 µM

Q: What about the TGI (KM12 colon) of the same compound?
A: > 100 µM

Q: What about the GI50 (OVCAR-4 ovarian) of the same compound?
A: > 100 µM

Q: And the TGI (OVCAR-4 ovarian)?
A: > 100 µM

Q: What about the GI50 (HCT-116 colon) of the same compound?
A: > 100 µM

Q: And the TGI (HCT-116 colon)?
A: > 100 µM

Q: What about the GI50 (M14 melanoma) of the same compound?
A: > 100 µM

Q: And the TGI (M14 melanoma)?
A: > 100 µM

Q: And the GI50 (BT-549 breast)?
A: > 100 µM

Q: And the TGI (BT-549 breast)?
A: > 100 µM

Q: What about the GI50 (SK-OV-3 ovarian) of the same compound?
A: > 100 µM

Q: And the TGI (SK-OV-3 ovarian)?
A: > 100 µM

Q: What about the GI50 (SN12C renal) of the same compound?
A: > 100 µM

Q: And the TGI (SN12C renal)?
A: > 100 µM
